The source of these data is US20200239530A1, “COMPOUNDS AND METHODS OF MODULATING PROTEIN DEGRADATION” (Vividion Therapeutics, Inc., priority 2017, published 2020).

Holding throughout (experiment): Cysteine liganding, probe competition
Format in all cases: binding

The target of assay [1] is T1, ANKRD54 Ankyrin repeat domain-containing protein 54 (Homo sapiens, UniProt Q6NXT1).
T1 construct: 200 μL of lysate containing 5 mg/ml proteome was treated with 2 μL of 100× compound stock; endogenous in cells
T1 sequence (Q6NXT1 whole entry, the tested form may be a part): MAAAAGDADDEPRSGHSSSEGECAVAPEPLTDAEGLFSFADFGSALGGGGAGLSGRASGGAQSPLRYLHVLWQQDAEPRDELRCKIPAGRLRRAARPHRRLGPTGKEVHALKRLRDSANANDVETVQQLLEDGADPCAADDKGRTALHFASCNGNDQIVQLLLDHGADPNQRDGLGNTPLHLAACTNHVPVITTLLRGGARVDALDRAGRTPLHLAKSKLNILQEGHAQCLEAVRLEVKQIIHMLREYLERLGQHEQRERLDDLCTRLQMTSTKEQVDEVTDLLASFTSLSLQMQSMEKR
An outline of the steps: (§1)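 Read-out is loss of desthiobiotin iodoacetamide labelling at cysteines, measured on streptavidin-enriched tryptic peptides. Compound preincubation ran 1 hr at 25° C in PBS lysate holding 5 mg/ml proteome before the probe was added.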

In assay [2] the target is T2, BACH2 Transcription regulator protein BACH2 (Homo sapiens, UniProt Q9BYV9).
T2 construct: Cells were resuspended in cold PBS on ice and sonicated with a probe sonicator to achieve lysis; endogenous in cells
T2 sequence (Q9BYV9 whole entry): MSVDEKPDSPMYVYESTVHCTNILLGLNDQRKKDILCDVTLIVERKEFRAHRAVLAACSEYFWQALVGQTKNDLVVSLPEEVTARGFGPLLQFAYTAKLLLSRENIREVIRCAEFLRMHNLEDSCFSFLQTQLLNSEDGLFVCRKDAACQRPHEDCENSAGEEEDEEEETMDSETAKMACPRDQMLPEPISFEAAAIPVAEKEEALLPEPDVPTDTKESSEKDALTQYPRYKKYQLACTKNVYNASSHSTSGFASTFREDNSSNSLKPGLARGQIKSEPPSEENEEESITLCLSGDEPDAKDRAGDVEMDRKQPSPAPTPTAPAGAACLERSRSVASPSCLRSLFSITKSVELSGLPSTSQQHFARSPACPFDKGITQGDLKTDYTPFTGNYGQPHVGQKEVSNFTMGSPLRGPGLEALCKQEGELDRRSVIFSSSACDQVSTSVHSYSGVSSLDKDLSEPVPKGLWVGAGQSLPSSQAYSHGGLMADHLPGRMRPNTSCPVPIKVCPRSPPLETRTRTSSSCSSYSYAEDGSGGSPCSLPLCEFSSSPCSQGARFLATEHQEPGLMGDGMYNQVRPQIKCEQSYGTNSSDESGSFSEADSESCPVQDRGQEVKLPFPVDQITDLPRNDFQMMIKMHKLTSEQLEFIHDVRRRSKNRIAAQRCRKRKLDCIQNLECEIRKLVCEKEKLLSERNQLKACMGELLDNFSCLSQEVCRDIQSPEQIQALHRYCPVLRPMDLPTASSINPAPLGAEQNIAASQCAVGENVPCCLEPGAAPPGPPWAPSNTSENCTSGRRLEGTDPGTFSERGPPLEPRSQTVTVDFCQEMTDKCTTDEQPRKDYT
Summed up:
as §1

Assay [3] concerns the target T3, TRIM33 E3 ubiquitin-protein ligase TRIM33 (Homo sapiens, UniProt Q9UPN9).
T3 construct: Cells were resuspended in cold PBS on ice and sonicated with a probe sonicator to achieve lysis; endogenous in cells
T3 sequence (Q9UPN9 1-1127): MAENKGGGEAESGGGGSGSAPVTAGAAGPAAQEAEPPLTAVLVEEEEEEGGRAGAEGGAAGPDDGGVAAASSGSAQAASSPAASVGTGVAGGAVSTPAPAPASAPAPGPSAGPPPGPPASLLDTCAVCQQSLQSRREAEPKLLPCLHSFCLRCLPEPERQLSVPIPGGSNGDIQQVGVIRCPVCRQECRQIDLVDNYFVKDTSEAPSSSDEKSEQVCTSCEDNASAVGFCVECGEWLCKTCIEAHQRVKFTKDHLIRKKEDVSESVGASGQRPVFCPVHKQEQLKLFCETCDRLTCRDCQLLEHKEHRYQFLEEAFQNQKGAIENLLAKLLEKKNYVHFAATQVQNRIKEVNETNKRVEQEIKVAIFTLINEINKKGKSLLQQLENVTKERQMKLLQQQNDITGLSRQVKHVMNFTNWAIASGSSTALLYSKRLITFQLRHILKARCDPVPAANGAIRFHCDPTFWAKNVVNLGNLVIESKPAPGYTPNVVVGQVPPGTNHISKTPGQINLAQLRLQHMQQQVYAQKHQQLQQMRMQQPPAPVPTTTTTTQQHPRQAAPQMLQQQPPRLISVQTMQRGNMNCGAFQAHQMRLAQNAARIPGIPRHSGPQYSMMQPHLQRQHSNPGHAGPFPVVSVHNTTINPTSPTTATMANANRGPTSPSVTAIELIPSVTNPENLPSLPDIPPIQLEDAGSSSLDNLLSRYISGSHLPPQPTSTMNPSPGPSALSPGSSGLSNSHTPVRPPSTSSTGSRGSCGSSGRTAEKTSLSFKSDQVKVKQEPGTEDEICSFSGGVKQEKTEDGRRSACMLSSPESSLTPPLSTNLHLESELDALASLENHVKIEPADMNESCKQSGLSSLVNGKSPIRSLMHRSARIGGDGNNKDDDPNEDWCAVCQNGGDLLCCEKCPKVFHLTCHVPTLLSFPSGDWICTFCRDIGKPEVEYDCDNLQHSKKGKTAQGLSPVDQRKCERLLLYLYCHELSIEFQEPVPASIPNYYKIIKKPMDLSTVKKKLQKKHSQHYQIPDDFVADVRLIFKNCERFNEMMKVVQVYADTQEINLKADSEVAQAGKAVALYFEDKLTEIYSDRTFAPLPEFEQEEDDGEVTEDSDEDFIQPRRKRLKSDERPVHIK
An outline of the steps: as §1

For `COc1ccc2c(c1)CCCN2C(=O)CCl` [KB02], the Liganded entry in assay [1] (ANKRD54 Res# 230, uniprot Q6NXT1) was “YES”; in assay [2] (BACH2 Res# 370, uniprot Q9BYV9), “YES”; in assay [3] (TRIM33 Res# 582, uniprot Q9UPN9), “YES”.
In the case of `O=C(CCl)Nc1cc(C(F)(F)F)cc(C(F)(F)F)c1` [KBO3], in assay [1] (uniprot Q6NXT1), the “100 Max” value was 7.02, the 100 ave is reported as −0.72, the “500 Max” value turned out to be 45.29 and the 500 ave is recorded as 44.21. In addition, in assay [2] (uniprot Q9BYV9), the “100 Max” value is listed as 25.4, the 100 ave is 17.2 and the 500 ave is recorded as 62.8. The molecule also displayed a 500 Max in assay [2] (uniprot Q9BYV9, unit assumed) of 62.8%. Also, the “KB03_500 uM_percent_inhibition” value in assay [3] (500 uM, UniProt Q9UPN9) is on record as 86%. Moreover, the Liganded entry in assay [3] (TRIM33 Res# 153, uniprot Q9UPN9) is on record as “YES”.
